According to patent US12138294B2, “Transgenic corn with antifungal peptide AGM182 (DN:0113.18)” (GENVOR, INC., priority 2018, dated 2024):
“Also recorded” adds a separate entry of the source. Bridge positions count the residues as written; N and C are the ends. Peptide text beside a SMILES is read from it.

How the values were obtained:
[1] = tested on: pre-germinated conidia of A. flavus; details: read-out: IC50 against A. flavus; in vitro; pre-germinated conidia of A. flavus 70-GFP treated 60 min with 0-25 μM peptide; colonies counted after 24 h at 30° C.
porcine blood cells = experiment: Hemolysis of porcine blood cells
[2] = tested on: maize (Zea mays L. Hi-II); experiment: Phenotype of transgenic maize plants expressing AGM182; details: transgenic maize plants vs. isogenic negative or non-transformed control

| Molecule | IC50 [1] | hemolysis of porcine blood cells (porcine blood cells; 0.1% Triton-X, positive control) | hemolysis of porcine blood cells (porcine blood cells; all concentrations of AGM182) | effect of transgenic expression on plant phenotype and seed weight [2] |
| --- | --- | --- | --- | --- |
| CC[C@H](C)[C@@H]1NC(=O)CNC(=O)[C@H](CCCNC(=N)N)NC(=O)[C@H](Cc2ccc(O)cc2)NC(=O)[C@@H]2CSSC[C@H](NC1=O)C(=O)N[C@@H](Cc1ccc(O)cc1)C(=O)N[C@@H](CCCNC(=N)N)C(=O)N[C@@H](CCCNC(=N)N)C(=O)N[C@H](C(=O)N[C@@H](CCCNC(=N)N)C(N)=O)CSSC[C@H](NC(=O)[C@H](Cc1c[nH]c3ccccc13)NC(=O)[C@@H](N)CCCCN)C(=O)N[C@@H](Cc1ccccc1)C(=O)N[C@@H](CCCNC(=N)N)C(=O)N[C@@H](C(C)C)C(=O)N2 [tachyplesin1, reference compound] (H-KWCFRVCYRGICYRRCR-NH2; disulfide 3-16, 7-12) | 12.5 µM | – | – | – |
| Triton-X [reference compound] | – | 100% | – | – |
| CC[C@H](C)[C@H](NC(=O)[C@@H]1CSSC[C@H](NC(=O)[C@H](CC(C)C)NC(=O)[C@H](CCCNC(=N)N)NC(=O)[C@H](C)NC(=O)[C@H](CCCCN)NC(=O)[C@@H](NC(=O)[C@@H](N)CCCCN)[C@@H](C)CC)C(=O)N[C@@H](CC(C)C)C(=O)NCC(=O)N[C@@H](CCCCN)C(=O)N[C@@H](Cc2ccccc2)C(=O)N1)C(=O)N[C@@H](CCCCN)C(=O)N[C@@H](C)C(=O)N[C@@H](CCCNC(=N)N)C(=O)N[C@@H](CC(C)C)C(=O)N[C@@H](CCCCN)C(=O)O [AGM182] (H-KIKARLCLGKFCIKARLK-OH; disulfide 7-12) | 2.5 µM | – | No hemolysis; also recorded: absence of hemolytic activity | did not exhibit any overt phenotype; also recorded: did not have any negative effect on plant phenotype and seed weight |
